{"source": "ChEMBL document CHEMBL1146438", "about": "“Structure and anti-acetylcholinesterase activity of 4 alpha-(hydroxymethyl)-4 alpha-demethylterritrem B” (J Nat Prod, 1997)", "data": [{"molecular_target": "Acetylcholinesterase (Electrophorus electricus, UniProt O42275)", "sequence (O42275 whole entry)": "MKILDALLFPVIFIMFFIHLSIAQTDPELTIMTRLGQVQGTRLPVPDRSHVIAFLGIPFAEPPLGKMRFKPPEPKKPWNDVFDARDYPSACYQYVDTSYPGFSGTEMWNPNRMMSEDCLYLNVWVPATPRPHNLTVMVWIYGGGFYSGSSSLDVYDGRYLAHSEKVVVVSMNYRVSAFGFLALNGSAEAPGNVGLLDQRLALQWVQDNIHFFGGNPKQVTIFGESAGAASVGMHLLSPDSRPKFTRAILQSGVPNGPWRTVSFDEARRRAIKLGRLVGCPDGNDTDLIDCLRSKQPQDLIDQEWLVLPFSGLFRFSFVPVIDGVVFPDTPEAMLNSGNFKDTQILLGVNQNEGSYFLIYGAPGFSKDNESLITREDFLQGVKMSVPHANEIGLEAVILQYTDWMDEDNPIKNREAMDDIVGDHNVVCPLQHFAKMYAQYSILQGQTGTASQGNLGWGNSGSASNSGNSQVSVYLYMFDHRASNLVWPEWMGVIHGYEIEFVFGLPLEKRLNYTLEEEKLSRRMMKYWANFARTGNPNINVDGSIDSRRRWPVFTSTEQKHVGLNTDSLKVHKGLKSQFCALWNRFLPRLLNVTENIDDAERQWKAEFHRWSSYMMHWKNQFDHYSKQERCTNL", "test": "Inhibition of electric eel AChE by Ellman's method", "units": {"IC50": "nM"}, "values": [{"molecule": "COc1cc(-c2cc3c(c(=O)o2)C[C@]2(O)[C@@]4(C)C(=O)C=C[C@@](C)(CO)[C@]4(O)CC[C@@]2(C)O3)cc(OC)c1OC", "note": "[4ALPHA-(HYDROXYMETHYL)-4ALPHA-DEMETHYLTERRITREM B]", "IC50": 0.423}, {"molecule": "COc1cc(-c2cc3c(c(=O)o2)C[C@]2(O)[C@@]4(C)C(=O)C=C[C@](C)(CO)[C@]4(O)CC[C@@]2(C)O3)cc(OC)c1OC", "IC50": 790}, {"molecule": "C=CC[N+](C)(C)c1ccc(CCC(=O)CCc2ccc([N+](C)(C)CC=C)cc2)cc1", "IC50": 10}]}]}
